In US20070021501A1, “Methods of treating epileptogenesis” (priority 2005, published 2007):
Values joined by “and” are separate entries in the source; they are usually repeats but may differ in a detail not shown here. Equal entries are not always repeated.

Legend:
[1] = system: lithium-pilocarpine status epilepticus in the rat; experiment: Mortality induced by SE, lithium-pilocarpine model (Example 1); type: in vivo
Description: The model induced in rats by pilocarpine associated with lithium (Li-Pilo) reproduces most of the clinical and neurophysiological features of human temporal lobe epilepsy (Turski et al., 1989, Synapse 3:154-171; Cavalheiro, 1995, Ital J Neurol Sci 16:33-37). In adult rats, the systemic administration of pilocarpine leads to status epilepticus (SE). The lethality rate reaches 30-50% during the first days. In the surviving animals, neuronal damage predominates within the hippocampal formation, the piriform and entorhinal cortices, thalamus, amygdaloid complex, neocortex and substantia nigra.
(§1) Male Wistar rats weighing 225-250 g, provided by Janvier Breeding Center (Le Genest-St-lste, France) were housed under controlled standard conditions (light/dark cycle, 7.00 a.m.-7.00 p.m. lights on), with food and water available ad libitum. All animal experimentation was performed in accordance with the rules of the European Communities Council Directive of Nov. 24, 1986 (86/609/EEC), and the French Department of Agriculture (License N^o 67-97). For electrode implantation, rats were anesthetized by an i.p. injection of 2.5 mg/kg diazepam (DZP, Valium, Roche, France) and […] ketamine chlorhydrate (Imalgene 1000, Rhone Merrieux, France). Four single-contact recording electrodes were placed on the skull, over the parietal cortex, two on each side.
(§2) The bilateral EEG cortical activity was recorded during the whole duration of SE and behavioral changes were noted.
The effects of increasing doses of the test compound were studied on 3 groups of rats. The animals of the first group received 10 mg/kg of the test compound, i.p., 1 h after the onset of SE (pilo-TC10) while the animals of groups 2 and 3 received 30 and 60 mg/kg of the test compound (pilo-TC30 and pilo-TC60), respectively.
The control group received saline instead of pilocarpine and the test compound (saline-saline). […] Pilo-DZP received a second injection of 1 mg/kg DZP on the day of SE at about 10 h after the first one. Thereafter, Pilo-DZP and saline-saline rats received twice daily an equivalent volume of saline.

[2] = system: lithium-pilocarpine status epilepticus in the rat; experiment: Mortality over the first 48 h after Li-pilo SE (Example 2); type: in vivo, Sprague-Dawley rats
Experimental: Adult male Sprague-Dawley rats provided by Janvier Breeding Center (Le Genest-St-lsle, France) were housed under controlled, uncrowded standard conditions at 20-22° C. (light/dark cycle, 7.00 a.m.-7.00 p.m. lights on), with food and water available ad libitum. All animal experimentation was performed in accordance with the rules of the European Communities Council Directive of Nov. 24, 1986 (86/609/EEC), and the French Department of Agriculture (License N^o 67-97).

[3] = system: lithium-pilocarpine status epilepticus in the rat; experiment: EEG patterns during and after Li-pilo SE (Example 1); type: in vivo; details: for EEG by 6-7 h of SE: cortex and hippocampus
Experimental: as §1, §2
The effects of the test compound on the EEG and on the latency to occurrence of SRS were investigated by daily video recording of the animals for 10 h per day and the recording of the electrographic activity twice a week for 8 h.

[4] = system: lithium-pilocarpine model of temporal lobe epilepsy in the rat; experiment: Mossy fiber sprouting in hippocampus, Timm staining (Example 1); type: in vivo
Experimental: At 2 months after the onset of spontaneous recurrent seizures, mossy fiber sprouting was examined on rats in the chronic period exposed to the test compound or DZP and in 3 saline-saline rats. Animals were deeply anaesthetized and perfused transcardially with saline followed by 100 ml of 1.15% (w/v) Na2S in 0.1 M phosphate buffer, and 100 ml of 4% (v/v) formaldehyde in 0.1 M phosphate buffer. Brains were removed from skull, post-fixed in 4% formaldehyde during 3-5 h and 40 μm sections were cut on a sliding vibratome and mounted on gelatin-coated slides.
The following day, sections were developed in the dark in a 26° C. solution of 50% (w/v) arabic gum (160 ml), sodium citrate buffer (30 ml), 5.7% (w/v) hydroquinone (80 ml) and 10% (w/v) silver nitrate (2.5 ml) during 40-45 min. The sections were then rinsed with tap water at 40° C. during at least 45 min, rinsed rapidly with distilled water and allowed to dry. They were dehydrated in ethanol and coverslipped.
Mossy fiber sprouting was evaluated according to criteria previously described in dorsal hippocampus (Cavazos et al., 1991, J Neurosci 11:2795-2803.), which are follows: 0—no granules between the tips and crest of the DG; 1—sparse granules in the supragranular region in a patchy distribution between the tips and crest of DG; 2—more numerous granules in a continuous distribution between the tips and crest of DG; 3—prominent granules in a continuous pattern between tips and crest, with occasional patches of confluent granules between tips and crest; 4—prominent granules that form a confluent dense laminar band between tips and crest and 5—confluent dense laminar band of granules that extends into the inner molecular layer.

[5] = system: lithium-pilocarpine model of temporal lobe epilepsy in the rat; experiment: Quantification of cell densities (neuronal counting) 14 days after Li-pilo SE (Example 2); details: for number of neuronal cell bodies: DZP 2.5 mg/kg i.m., 14 days after li-pilo SE; for neurons surviving: all parts of the entorhinal cortex (range)
Experimental: All rats received lithium chloride (3 meq/kg, i.p., Sigma, St Louis, Mo., U.S.A.) and about 20 h later, all animals received also methylscopolamine bromide (1 mg/kg, s.c., Sigma) that was administered to limit the peripheral effects of the convulsant. […] The effects of increasing doses of TC were studied in 5 groups of rats. […] The control group received vehicle instead of pilocarpine and TC.
For neuronal counting, animals were deeply anesthetized with 1.8 g/kg pentobarbital (Dolethal®, Vétoquinol, Lure, France). Brains were then removed and frozen. Serial 20 μm slices were cut in a cryostat, air-dried during several days before thionine staining. […] The grid of counting was placed on a well defined area of the cerebral structure of interest and counting was carried out with a microscopic enlargement of 200- or 400-fold defined for each single cerebral structure. Cell counts were performed twice on each side of three adjacent sections for each region by a single observer unaware of the animal's treatment. The number of cells obtained in the 12 counted fields in each cerebral structure was averaged. This procedure was used to minimize the potential errors that could result from double counting leading to overestimation of cell numbers. […] Counts involved only neurons with cell bodies larger than 10 μm. Cells with small cell bodies were considered as glial cells and were not counted.
For neuronal damage and epileptogenesis, statistical analysis between groups was performed by means of a one-way analysis of variance followed by a post-hoc Dunnett or Fisher test using the Statistica software.

## CN1C(=O)CN=C(c2ccccc2)c2cc(Cl)ccc21 [DZP, diazepam]
[1]; DZP 2 mg/kg i.m. 1 h after onset of SE (5/22)
  mortality during the first 48 h after SE: 23%
[2]; DZP 2.5 mg/kg i.m., group devoted to cell counting at 14 days (4/11)
  mortality over the first 48 h after SE: 36%
[2]; DZP 2.5 mg/kg i.m., group devoted to latency to SRS and late cell counting (1/14)
  mortality over the first 48 h after SE: 7%
[3]; DZP 2 mg/kg i.m.
  EEG by 6-7 h of SE: spiking activity was still present in the cortex and the hippocampus
[4]; DZP (n=9)
  mean Timm score in the upper blade of the dentate gyrus: 2.8±0.8
[5]; Amygdala Medial, dorsal anterior
  number of neuronal cell bodies: 40.0 ± 2.5
[5]; Amygdala Medial, ventral posterior
  number of neuronal cell bodies: 21.8 ± 2.4
[5]; Cerebral cortex Entorhinal, layer II, dorsal
  number of neuronal cell bodies: 23.5 ± 0.7
[5]; Cerebral cortex Entorhinal, layer II, ventral
  number of neuronal cell bodies: 21.7 ± 1.3
[5]; Cerebral cortex Entorhinal, layer III/IV, dorsal
  number of neuronal cell bodies: 22.3 ± 0.5
[5]; Cerebral cortex Entorhinal, layer III/IV, ventral
  number of neuronal cell bodies: 7.7 ± 2.3
[5]; Cerebral cortex Piriform, layer II, dorsal
  number of neuronal cell bodies: 12.6 ± 4.2
[5]; Cerebral cortex Piriform, layer II, ventral
  number of neuronal cell bodies: 3.6 ± 0.7
[5]; Cerebral cortex Piriform, layer III
  number of neuronal cell bodies: 1.2 ± 1.2
[5]; DZP, 14 days after SE
  neurons surviving: 27-81%
[5]; DZP, amygdala basolateral nucleus, 14 days after SE
  neuronal loss (drop out) compared to control rats: 73%
[5]; DZP, amygdala central nucleus, 14 days after SE
  neuronal damage compared to control rats: no neuronal damage
[5]; DZP, amygdala medial dorsal anterior nucleus, 14 days after SE
  neuronal loss (drop out) compared to control rats: 53%
[5]; DZP, amygdala medial ventral posterior nucleus, 14 days after SE
  neuronal loss compared to control rats: 38%
[5]; DZP, dentate gyrus granule cell layer, 14 days after SE
  neuronal damage compared to control rats: did not show overt damage
[5]; DZP, dorsal entorhinal cortex layer II, 14 days after SE
  neuronal damage compared to control saline-treated rats: 18%
[5]; DZP, dorsal entorhinal cortex layers III-IV, 14 days after SE
  neuronal damage compared to control saline-treated rats: 24%
[5]; DZP, hilus of dentate gyrus, 14 days after SE
  neuronal loss compared to control rats: 65% and 66%
[5]; DZP, hippocampus CA1 pyramidal cell layer, 14 days after SE
  neuronal loss (drop out) compared to control rats: 85%
[5]; DZP, hippocampus CA3 region, 14 days after SE
  neuronal loss compared to control rats: 40%
[5]; DZP, piriform cortex dorsal layer II, 14 days after SE
  neuronal loss compared to control saline-treated rats: 66%
[5]; DZP, piriform cortex layer III, 14 days after SE
  neuronal loss compared to control saline-treated rats: 94%
[5]; DZP, piriform cortex ventral layer II, 14 days after SE
  neuronal loss compared to control saline-treated rats: 89%
[5]; DZP, thalamus central medial nucleus, 14 days after SE
  neuronal loss (drop out) compared to control rats: 34%
[5]; DZP, thalamus dorsolateral medial dorsal nucleus, 14 days after SE
  neuronal loss (drop out) compared to control rats: 40%
[5]; DZP, thalamus mediodorsal central nucleus, 14 days after SE
  neuronal loss (drop out) compared to control rats: 18%
[5]; DZP, thalamus mediodorsal lateral nucleus, 14 days after SE
  neuronal loss (drop out) compared to control rats: 24%
[5]; DZP, thalamus mediodorsal nucleus, 14 days after SE
  neuronal loss compared to control rats: 49%
[5]; DZP, thalamus ventral lateral division of the dorsolateral nucleus, 14 days after SE
  neuronal loss compared to control rats: 90%
[5]; DZP, ventral entorhinal cortex layer II, 14 days after SE
  neuronal damage compared to control saline-treated rats: 22% and 19%
[5]; DZP, ventral entorhinal cortex layers III/IV, 14 days after SE
  neuronal damage compared to control saline-treated rats: 74% and 73%
[5]; Hippocampus CA1 area
  number of neuronal cell bodies: 10.9 ± 1.9
[5]; Hippocampus CA3 area
  number of neuronal cell bodies: 31.3 ± 2.9
[5]; Hippocampus Hilus
  number of neuronal cell bodies: 33.5 ± 3.0
[5]; Thalamus Central medial
  number of neuronal cell bodies: 74.2 ± 7.4
[5]; Thalamus Dorsolateral, medial, dorsal
  number of neuronal cell bodies: 61 ± 6.3
[5]; Thalamus Dorsolateral, ventral lateral
  number of neuronal cell bodies: 9.7 ± 2.5
[5]; Thalamus Mediodorsal central
  number of neuronal cell bodies: 26.3 ± 1.8
[5]; Thalamus Mediodorsal lateral
  number of neuronal cell bodies: 19.6 ± 0.8
[5]; Thalamus Mediodorsal medial
  number of neuronal cell bodies: 16.4 ± 1.9

## NC(=O)OC[C@@H](O)c1ccccc1Cl [TC]
[1]; TC 10 mg/kg i.p. 1 h after onset of SE (6/23)
  mortality during the first 48 h after SE: 26%
[1]; TC 30 mg/kg i.p. 1 h after onset of SE (5/25)
  mortality during the first 48 h after SE: 20%
[1]; TC 60 mg/kg i.p. 1 h after onset of SE (1/23), p<0.01
  mortality during the first 48 h after SE: 4%
[2]; TC 30 mg/kg, group devoted to cell counting at 14 days (4/12)
  mortality over the first 48 h after SE: 33%
[2]; TC 30 mg/kg, group devoted to latency to SRS and late cell counting (3/11)
  mortality over the first 48 h after SE: 27%
[2]; TC 60 mg/kg, group devoted to cell counting at 14 days (1/12)
  mortality over the first 48 h after SE: 8%
[2]; TC 60 mg/kg, group devoted to latency to SRS and late cell counting (0/10)
  mortality over the first 48 h after SE: 0%
[2]; TC 90 mg/kg, group devoted to cell counting at 14 days (0/10)
  mortality over the first 48 h after SE: 0%
[2]; TC 90 mg/kg, group devoted to latency to SRS and late cell counting (0/11)
  mortality over the first 48 h after SE: 0%
[2]; TC 120 mg/kg, group devoted to cell counting at 14 days (4/12)
  mortality over the first 48 h after SE: 33%
[2]; TC 120 mg/kg, group devoted to latency to SRS and late cell counting (0/9)
  mortality over the first 48 h after SE: 0%
[3]; TC 10 mg/kg, between 1 and 8 h after injection
  EEG after injection at 24 and 48 h after SE (silent period): no change
[3]; TC 10 mg/kg
  EEG by 6-7 h of SE: spiking activity was still present in the cortex and the hippocampus
[3]; TC 30 mg/kg, hippocampus
  amplitude of the EEG by 6-7 h of SE: came back to baseline levels
[3]; TC 60 mg/kg, hippocampus and cortex
  amplitude of the EEG by 6-7 h of SE: came back to baseline levels
[3]; TC 30 and 60 mg/kg, as soon as 10 min after injection
  EEG after injection at 24 and 48 h after SE (silent period): frequency and amplitude of PEDs decreased
[4]; TC 10 mg/kg (n=7)
  mean Timm score in the upper blade of the dentate gyrus: 1.5±0.6
[4]; TC 30 mg/kg (n=10)
  mean Timm score in the upper blade of the dentate gyrus: 2.6±1.0
[4]; TC 60 mg/kg, whole group (n =11)
  mean Timm score in the upper blade of the dentate gyrus: 1.5±0.7
[5]; TC 120 mg/kg, 14 days after SE
  neurons surviving: 85-94%
[5]; TC 120 mg/kg, hilus of dentate gyrus, 14 days after SE
  neuronal loss: 53%
[5]; TC 120 mg/kg, hippocampus CA1 pyramidal cell layer, 14 days after SE
  cell loss: 12%
[5]; TC 120 mg/kg, thalamic nuclei (range), 14 days after SE
  neuronal drop out: 4-19%
[5]; TC30, 60 and 90 groups (range printed together with DZP group), hilus of dentate gyrus, 14 days after SE
  cell loss (drop out): 61-66%
[5]; TC30, 60 or 90 rats (range over groups), hippocampus CA1 pyramidal cell layer, 14 days after SE
  cell loss: 36-47%
